The structures appear in SMILES notation.

The values that follow come from patent US20110275684A1, “NOVEL BENZOTRIAZOLE DERIVATIVES USEFUL FOR THE TREATMENT OF CNS DISORDERS” (NEUROSEARCH A/S, priority 2009, published 2011).

System in the first series: not given
Experiment: not given
Settings: not given
Usually melting point stands for the temperature of the solid-liquid transition. On to `CC(C(N)=O)n1nnc2ccc(F)cc21` (stereo not drawn) [Compound 10, 2-(6-Fluoro-benzotriazol-1-yl)-propionamide], for which the melting point lay within 156.8 to 158 °C.

Take `CC(C)CC(C(N)=O)n1nnc2ccccc21` (stereo not drawn) [Compound 17, 2-(Benzotriazol-1-yl)-4-methyl-pentanamide]: the melting point lay within 177.5 to 178.8 °C.

`Brc1ccc2c(c1)nnn2Cc1c[nH]cn1` came in with a melting point of 178.3 to 180.8 °C.

With `Fc1cc(F)c2nnn(Cc3ncc[nH]3)c2c1`, the melting point lay in the range of 166 to 167.5 °C.

Consider `CCC(C(N)=O)n1nnc2cc(F)cc(F)c21` (stereo not drawn) [Compound 6, 2-(5,7-Difluoro-benzotriazol-1-yl)-butyramide], for which the melting point is 155 to 156.3 °C.

Take `CC[C@@H](C(N)=O)n1nnc2cc(Cl)ccc21` [Compound 18, (2S)-2-(5-Chlorobenzotriazol-1-yl)butanamide]: the melting point is 175.5 to 177.5 °C.

The compound `CC[C@H](C(N)=O)n1nnc2cc(Br)ccc21` [Compound 21, (2R)-2-(5-Bromobenzotriazol-1-yl)butanamide] came in with a melting point of 206.2 to 207.3 °C.

As for `CCC(C(N)=O)n1nnc2c(F)cc(F)cc21` (stereo not drawn) [Compound 7, 2-(4,6-Difluoro-benzotriazol-1-yl)-butyramide], the melting point is 199 to 200.5 °C.

`NC(=O)Cn1nnc2cc(Br)ccc21` [Compound 13, 2-(5-Bromo-benzotriazol-1-yl)-acetamide] had a melting point of 221.5 to 222.5 °C.

`CCC(C(N)=O)n1nnc2ccc(Br)cc21` (stereo not drawn) [Compound 3, 2-(6-Bromo-benzotriazol-1-yl)-butyramide]: the melting point lay within 181.2 to 182.1 °C.

Compound `NC(=O)Cn1nnc2cc(F)cc(F)c21` [Compound 8, 2-(5,7-Difluoro-benzotriazol-1-yl)-acetamide] gave a melting point of 236.5 to 238 °C.

In turn, `CC[C@H](C(N)=O)n1nnc2c(F)cccc21` [Compound 23, (2R)-2-(4-Fluorobenzotriazol-1-yl)butanamide] displayed a melting point of 162.5 to 163.7 °C.

The compound `CC[C@@H](C(N)=O)n1nnc2c(F)cccc21` [Compound 24, (2S)-2-(4-Fluorobenzotriazol-1-yl)butanamide] showed a melting point of 163.9 to 165.1 °C.

Regarding `CC(C)[C@@H](C(N)=O)n1nnc2ccccc21` [Compound 16, (2S)-2-(Benzotriazol-1-yl)-3-methyl-butanamide], the melting point was in the range of 164 to 165.7 °C.

The compound `CS(=O)(=O)c1ccc2nnn(CC(N)=O)c2c1` [Compound 5, 2-(6-Methanesulfonyl-benzotriazol-1-yl)-acetamide] had a melting point of 241.8 to 242.7 °C.

Take `CC[C@@H](C(N)=O)n1nnc2c(Cl)cccc21` [Compound 15, (2S)-2-(4-Chlorobenzotriazol-1-yl)butanamide]: the melting point lay in the range of 153 to 154.5 °C.

With `NC(=O)Cn1nnc2c(F)cc(F)cc21` [Compound 9, 2-(4,6-Difluoro-benzotriazol-1-yl)-acetamide], the melting point lay in the range of 247.8 to 248.9 °C.

In turn, `CC(C(N)=O)n1nnc2cc(F)ccc21` (stereo not drawn) [Compound 11, 2-(5-Fluoro-benzotriazol-1-yl)-propionamide] displayed a melting point of 138.6 to 140.1 °C.

As to `c1ccc2c(c1)nnn2Cc1c[nH]cn1`, the melting point fell in the range of 137.8 to 138.9 °C.

The test system of another series is psychomotor seizures induced via corneal stimulation (6 Hz) in female NMRI mice. The experiment in a line: 6 Hz electroshock seizure model (anticonvulsant properties). Type of series: in vivo. As to conditions: Mus musculus, po, 32 mA, 3 s corneal stimulation, p.o., pretreatment time 60 mins, vehicle 5% cremaphor, read-out: ED50 (dose that would give a 50% protection from seizures). The text has this:
The animal models being used for the discovery of novel antiepileptic drugs are numerous. Among these, a low frequency (6 Hz) electroshock seizure model has recently come into the limelight as a potential model of pharmacoresistant epilepsy (see Epilepsy: a comprehensive textbook, pag. 1477, by By Jerome Engel, Timothy A. Pedley, Jean Aicardi, Marc A Dichter, Solomon Moshé—2007—Medical), and it is therefore an animal model of primary interest in antiepileptic drug discovery. The compounds of the invention have shown remarkable activity to protect against 6 Hz seizures.
The evaluation of the anticonvulsant properties was carried out in female NMRI mice (20-25 g, Taconic, Denmark). The mice were housed in groups (8 per cage according to weight) with food and water available ad libitum The environment was temperature (20±2° C.) and humidity (55±15%) controlled, and consisted of a 12:12 h light-dark cycle (lights on 06:00 h). The experiments were performed according to the Danish Committee for Experiments on Animals. […]
For screening purposes, the test compound was tested at 1 dose at 1 time-point. In the case of protection of 3 or more out of 8 mice, the compound were further evaluated in dose response (N=8/group). […]
One may read the ED50 as the dose at which the effect has come halfway, by size or by number of responders. As for `CCC(C(N)=O)n1nnc2ccccc21` (racemic) [Compound 1, 2-Benzotriazol-1-yl-butyramide], the ED50 was 38 mg/kg.

With `CC[C@@H](C(N)=O)n1nnc2cc(Br)ccc21` [Compound 12, (2S)-2-(5-Bromobenzotriazol-1-yl)butanamide], the median effective dose (ED50) amounted to 38 mg/kg.
